Ends that are not written are not given here.
Legend:
DIO-NAFLD mice [1] = assay: i.p. injection of ISAP1 in DIO-NAFLD mice: liver fat (appearance, oil red O staining); assay type: in vivo, C57BL/6 mice; conditions: daily i.p. injection 6 weeks
From the text: S122: effect of i.p. injection of ISAP1 on the liver may be studied.
In S121, livers may be collected while collecting the adipose tissues, and appearance of the livers may be photographed. A part of liver tissues may be taken for frozen sectioning, stained with oil red O for microscopic observation, and then a same area may be quantitatively analyzed. […] The […] the color is, the higher the fat content is contained.

DIO-NAFLD mice [2] = assay: i.p. injection of ISAP1 in DIO-NAFLD mice: liver functions and blood lipids; assay type: in vivo, C57BL/6 mice; conditions: daily i.p. 6 weeks, even at 2 pmol/g, compared with HFD control group, FIG. 4
From the text: S123: the effect of i.p. injection of ISAP1 on liver functions and blood lipids in mice may be studied.
In S121, before sacrificing the mice, blood of each mouse may be collected from a tail vein and detected for a level of alanine aminotransferases (ALT), a level of alkaline phosphatases (ALP), a level of aspartate aminotransferases (AST), a serum level of cholesterols, a level of low-density lipoprotein (LDL), and a level of high-density lipoprotein (HDL) using a Roche […] (model cobas 8000) as per manufacturer's instructions.

human GPRC6A (hGPRC6A) = target: T1, human GPRC6A (hGPRC6A) (Homo sapiens, UniProt Q5T6X5); assay: fluorescent binding of OCN peptides to cell membranes of Hela cells with hGPRC6A overexpressed; conditions: Hela cells with hGPRC6A overexpressed, fluorescent detection, FIG. 6B
T1 construct: expressed in transfected cells; host or cells: Hela cells (transfected with Lipofectamine 2000)
T1 sequence (Q5T6X5 19-926): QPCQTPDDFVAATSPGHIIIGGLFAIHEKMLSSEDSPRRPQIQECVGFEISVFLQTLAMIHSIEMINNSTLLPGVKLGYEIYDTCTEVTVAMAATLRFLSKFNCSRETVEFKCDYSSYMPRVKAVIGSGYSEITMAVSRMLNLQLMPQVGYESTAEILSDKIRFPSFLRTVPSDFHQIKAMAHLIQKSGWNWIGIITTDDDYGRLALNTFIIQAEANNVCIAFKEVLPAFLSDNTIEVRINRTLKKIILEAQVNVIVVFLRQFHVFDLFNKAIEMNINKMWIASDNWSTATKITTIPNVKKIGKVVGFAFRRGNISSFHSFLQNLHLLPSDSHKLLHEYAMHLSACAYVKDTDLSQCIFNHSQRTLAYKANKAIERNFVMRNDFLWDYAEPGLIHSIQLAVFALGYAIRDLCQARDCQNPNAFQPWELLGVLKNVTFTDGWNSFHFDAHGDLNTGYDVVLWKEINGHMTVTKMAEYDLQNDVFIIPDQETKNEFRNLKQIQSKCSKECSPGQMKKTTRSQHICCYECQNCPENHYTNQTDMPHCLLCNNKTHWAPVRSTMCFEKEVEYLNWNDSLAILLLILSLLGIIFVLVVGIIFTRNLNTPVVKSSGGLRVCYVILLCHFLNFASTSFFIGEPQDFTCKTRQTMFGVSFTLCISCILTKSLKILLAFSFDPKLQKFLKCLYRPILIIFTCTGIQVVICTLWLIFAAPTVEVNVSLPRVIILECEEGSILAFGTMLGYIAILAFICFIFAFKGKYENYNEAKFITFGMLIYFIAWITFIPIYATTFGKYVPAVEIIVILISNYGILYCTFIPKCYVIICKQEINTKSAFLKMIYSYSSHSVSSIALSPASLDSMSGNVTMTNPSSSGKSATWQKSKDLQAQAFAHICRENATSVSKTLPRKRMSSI
Description: S131: overexpression of hGPRC6A in Hela cells may be established.
1) Cell plating: A Hela cell suspension may be plated at a density of 1.6×10^5 cells/mL into a 6-well tray with 2 mL of DMEM per well, incubating at 37° C. and 5% CO2 for 24 hours.
2) A vector carrying hGPRC6A (pReceiver-M61) may be transfected into the Hela cells for overexpression, using Lipofectamine 2000 (Invitrogen) as per manufacturer's instructions, and media containing the vector may be replaced by normal media 4 hours later.
3) After the transfection, the cells may be cultured in the normal media for another 48 hours, and the normal media may be discarded. The cells attached on a bottom of each well may be washed twice with sterile PBS, and 300 μl of TRIzol solution may be added into each well. Cellular RNAs may be extracted as per RNAiso Plus (TaKaRa) instructions, and after a DNase treatment, may be reversely transcribed into cDNAs using DNAEngine and a SuperScript™ (Invitrogen, Canada) kit. The cDNAs may be used as a template, and real-time monitoring and analysis may be performed to fluorescent PCR products at various time points using a SYBR Green (Light Cycler Roche, Germany) method to detect expression levels of the hGPRC6A. […] The selected cell strain may then be detected for its gene expression by qPCR. […]

wild-type C57BL/6 mice = assay: intestinal fat (olive oil) absorption in normal mice, i.p. injection of peptide; assay type: in vivo; conditions: FIG. 5
Description: S140: effect of acute gavage of ISAP1 on intestinal fat absorption in normal mice may be studied.
Six-week-old male wild-type C57BL/6 mice may be divided into four groups, three in each group, three out of the four groups of mice may be intestinally perfused with 200 μl sterilized olive oil solution (Sigma), and the other one group of mice may be intestinally perfused with normal saline solution to be a negative control group. After 30 minutes, two groups of the mice treated with sterilized olive oil solution may be i.p. injected with OCN (6 pmol/g) and ISAP1 (6 pmol/g) respectively, and the other one group of the mice treated with sterilized olive oil solution may be i.p. injected with normal saline solution to be a saline control group. Further the mice of the negative control group solution may also be i.p. injected with normal saline solution to be the negative group. The mice of all four groups may be sacrificed 30 minutes later. Small intestine samples may be collected. The small intestine sample may be taken from a duodenum to a caecum, divided into 3 segments of equal length. After washing with pre-cooled normal saline solution, a segment close to the duodenum may be frozen and sliced, stained with oil red O and observed for fat absorption.

YLGASVPSPDPLEPT [ISAP1]
proportion of fat in the liver (oil red O staining) (DIO-NAFLD mice [1]; compared with HFD control group, FIG. 3C): decreased significantly | liver fat accumulation (liver appearance) (DIO-NAFLD mice [1]; vs HFD+carrier, FIG. 3A): significantly reduce the liver fat accumulation | level of alanine aminotransferases (ALT) in blood (DIO-NAFLD mice [2]): effective in reducing | level of alkaline phosphatases (ALP) in blood (DIO-NAFLD mice [2]): effective in reducing | level of aspartate aminotransferases (AST) in blood (DIO-NAFLD mice [2]): effective in reducing | level of low-density lipoprotein (LDL) (DIO-NAFLD mice [2]): effective in reducing | serum level of cholesterols (DIO-NAFLD mice [2]): effective in reducing | affinity of binding to the hGPRC6A compared with OCN (human GPRC6A (hGPRC6A)): consistent with that of the OCN | mouse intestinal absorption of the olive oil (oil red O-positive area / total area of intestinal villi) (wild-type C57BL/6 mice; 6 pmol/g i.p. 30 min after 200 μl olive oil, compared with saline control group): effectively reduce | reduction in olive oil absorption compared with OCN treatment (wild-type C57BL/6 mice; 6 pmol/g i.p., OCN 6 pmol/g): even more effective than the OCN treatment

Reference: US11098083B2, “Peptide that regulates fat metabolism and method for regulating fat metabolism” (SHENZHEN INSTITUTES OF ADVANCED TECHNOLOGY, priority 2017, dated 2021)
